Assay results from patent US20090023773A1, “COMPOSITIONS AND METHODS FOR MODULATING GATED ION CHANNELS” (PainCeptor Pharma Corporation, priority 2007, published 2009).

Tests used:
[1] = molecular target: T1, recombinant homomeric hASIC1a channels (Homo sapiens, UniProt P78348); assay: Two-electrode voltage clamp in Xenopus laevis oocytes expressing gated ion channels (Example 4); type: cell-based
T1 construct: expressed in transfected cells; host or cells: Xenopus laevis oocytes (nuclear microinjection of expression vector such as pcDNA3)
T1 sequence (P78348 1-528): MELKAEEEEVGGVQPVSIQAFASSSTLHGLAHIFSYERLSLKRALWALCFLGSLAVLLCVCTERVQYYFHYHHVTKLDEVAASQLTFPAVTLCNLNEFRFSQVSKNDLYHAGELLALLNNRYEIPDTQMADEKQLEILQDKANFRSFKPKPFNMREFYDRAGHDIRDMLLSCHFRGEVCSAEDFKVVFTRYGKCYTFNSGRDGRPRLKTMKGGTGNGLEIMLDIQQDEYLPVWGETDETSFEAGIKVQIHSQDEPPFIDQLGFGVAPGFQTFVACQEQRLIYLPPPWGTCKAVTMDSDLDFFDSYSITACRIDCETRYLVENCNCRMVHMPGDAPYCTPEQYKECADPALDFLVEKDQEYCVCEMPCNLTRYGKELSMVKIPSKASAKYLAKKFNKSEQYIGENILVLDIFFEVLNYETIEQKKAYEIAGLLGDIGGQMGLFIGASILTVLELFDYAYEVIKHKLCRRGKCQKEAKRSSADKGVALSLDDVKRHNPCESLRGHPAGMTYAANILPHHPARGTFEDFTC

ASIC2a+3 = assay: Whole cell patch clamp of ASIC2a/3 channel complex heterologously expressed in CHO cells (Example 3); type: cell-based; conditions: 50 μM; CHO cells expressing ASIC2a+3; FIG. 10A
Description: Another example of an in vitro assessment method consists of using mammalian heterologous expression systems, which are known to the skilled in the art, and include a variety of mammalian cell lines such as COS, HEK, e.g., HEK293 and/or CHO, cells. Cell lines are transfected with gated ion channel(s) and used to perform electrophysiology as follows: All experiments are performed at room temperature (20-25° C.) in voltage clamp using conventional whole cell patch clamp methods (Neher, E., et al. (1978) Pfluegers Arch 375:219-228). The amplifier used is the EPC-9 (HEKA-electronics, Lambrect, Germany) run by a Macintosh G3 computer via an ITC-16 interface. Experimental conditions are set with the Pulse-software accompanying the amplifier. Data is low pass filtered and sampled directly to hard-disk at a rate of 3 times the cut-off frequency. […] The cells are held at a holding voltage of −60 mV and at the start of each experiment the current is continuously measured for 45 s to ensure a stable baseline. […] Current amplitudes are measured at the peak of the responses, and effect of the compounds is calculated as the amplitude at compound equilibrium divided by the amplitude of the current evoked by the pulse just before the compound is included. […] The trace represents the current evoked by the pH drop recorded using whole cell patch clamp electrophysiology.

Row | IC50 ([1]; Table 1, generated using oocytes as in Example 4) [µM] | reduction in the current evoked by a mild pH stimulation ([1]; acid-induced inward currents in oocytes injected with hASIC1a cDNA, FIGS. 2A-2C) | SMILES | pH evoked response (ASIC2a+3 current) (ASIC2a+3)
1 | 0.1 to 10 | clear dose-dependent reduction | Cc1cc(OC2CCN(Cc3ccccc3)CC2)c2cc(O)ccc2n1 [Compound 13, 4-(1-benzylpiperidin-4-yloxy)-2-methylquinolin-6-ol] | –
2 | – | – | Cc1ccc(-c2nc(Nc3ccc(C(=O)O)cc3)c3cc(Cl)ccc3n2)cc1 [Compound 124] | markedly reduced
